The text below walks through data of the Kinase Knowledgebase extract (Sharma et al. 2016).

The target of one experiment is EGFR (human) (UniProt P00533). To be noted: a431.
A further experiment concerns the target EGFR (UniProt P00533). To be noted: concentration not given here.

Sequence of EGFR (P00533 whole entry, looked up): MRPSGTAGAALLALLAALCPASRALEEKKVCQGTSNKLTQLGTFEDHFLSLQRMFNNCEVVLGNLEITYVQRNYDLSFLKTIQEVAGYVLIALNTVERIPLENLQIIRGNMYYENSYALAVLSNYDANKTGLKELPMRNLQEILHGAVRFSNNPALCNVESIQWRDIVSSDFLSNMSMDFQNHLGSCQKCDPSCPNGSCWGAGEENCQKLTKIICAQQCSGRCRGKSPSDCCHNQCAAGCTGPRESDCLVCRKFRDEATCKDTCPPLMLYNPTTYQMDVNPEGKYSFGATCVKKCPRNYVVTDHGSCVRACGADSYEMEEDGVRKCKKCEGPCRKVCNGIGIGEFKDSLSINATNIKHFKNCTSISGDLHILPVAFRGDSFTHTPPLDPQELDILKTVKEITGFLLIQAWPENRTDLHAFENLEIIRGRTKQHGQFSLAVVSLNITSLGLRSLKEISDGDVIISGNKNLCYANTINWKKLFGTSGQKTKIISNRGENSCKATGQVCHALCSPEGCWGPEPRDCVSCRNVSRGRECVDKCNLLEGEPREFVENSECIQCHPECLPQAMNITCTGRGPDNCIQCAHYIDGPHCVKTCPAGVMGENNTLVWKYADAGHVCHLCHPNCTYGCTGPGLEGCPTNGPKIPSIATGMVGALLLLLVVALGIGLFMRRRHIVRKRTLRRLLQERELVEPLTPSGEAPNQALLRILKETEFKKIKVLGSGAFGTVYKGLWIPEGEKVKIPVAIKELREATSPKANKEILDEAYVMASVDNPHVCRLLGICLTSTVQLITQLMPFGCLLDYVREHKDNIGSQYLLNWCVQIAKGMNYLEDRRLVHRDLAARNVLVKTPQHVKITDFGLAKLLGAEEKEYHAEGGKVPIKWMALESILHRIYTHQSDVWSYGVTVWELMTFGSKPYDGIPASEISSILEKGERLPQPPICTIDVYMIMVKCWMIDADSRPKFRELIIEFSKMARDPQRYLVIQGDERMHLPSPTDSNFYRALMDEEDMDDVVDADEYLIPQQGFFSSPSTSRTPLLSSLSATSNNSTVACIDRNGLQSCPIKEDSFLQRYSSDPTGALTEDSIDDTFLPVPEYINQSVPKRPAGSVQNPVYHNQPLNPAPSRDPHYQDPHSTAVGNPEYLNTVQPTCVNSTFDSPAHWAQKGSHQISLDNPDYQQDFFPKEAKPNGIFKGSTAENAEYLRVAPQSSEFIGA
Sequence of EGFR (human) (P00533 whole entry, looked up): as above

For `COc1cc2c(cc1OC)C(Nc1cccc(Cl)c1)=NC(C)(C)N2`, the IC50 on EGFR (human) came to 200 µM.
Same read-out and setting: for `COc1cc(N)c(C(=O)Nc2cccc(Br)c2)cc1OC` the value was 340 µM.
The same measure, in the same setting: under `COc1cc(N)c(C(=O)Nc2cccc(C(F)(F)F)c2)cc1OC` stands 470 µM; under `COc1cccc(NC2=NC(C)(C)Nc3cc(OC)c(OC)cc32)c1`, 320 µM.
Still for that read-out and setting: under `COc1cc(N)c(C(=O)NC2CCCCC2)cc1OC` stands above 1000 µM.
As for `COc1cc(N)c(C(=N)Nc2ccc(F)c(Cl)c2)cc1OC`, the IC50 against EGFR (human) was 200 µM. For the same compound, the inhibition on EGFR is below 50%.
For the compound `COc1cccc(NC(=O)c2cc(OC)c(OC)cc2N)c1`, the IC50 on EGFR (human) was 200 µM.
The same measure, in the same setting: under `COc1cc(N)c(C(=O)Nc2ccncc2)cc1OC` stands above 1000 µM.
At EGFR, `COc1cc2ncnc(Nc3cccc(Cl)c3)c2cc1OC` had an inhibition of 10%.
Compound `COc1cc2c(cc1OC)C(Nc1cccc(Br)c1)=NC(C)(C)N2` registered an IC50 against EGFR (human) of 130 µM.
Still for that read-out and setting: for `COc1cc(N)c(C(=O)Nc2ccc(F)c(Cl)c2)cc1OC` the value was above 1000 µM.
Same read-out and setting: for `COc1cc(N)c(C(=O)Nc2cccnc2)cc1OC` the value was above 1000 µM; for `COc1cc(N)c(C(=O)Nc2ccccn2)cc1OC`, above 1000 µM.
Still for that read-out and setting: for `COc1cc(N)c(C(=N)Nc2cccc(Br)c2)cc1OC` the value was 300 µM.
The compound `COc1cc(N)c(C(=O)Nc2cccc(Br)c2)c(OC)c1OC` returned an IC50 on EGFR (human) of 920 µM. The compound further displayed an inhibition against EGFR below 50%.
For `COc1cc2c(cc1OC)C(Nc1ccc(F)c(Cl)c1)=NC(C)(C)N2`, the IC50 against EGFR (human) came out at 90 µM.
`COc1cc(N)c(C(=N)Nc2cccc(Cl)c2)cc1OC`: the IC50 at EGFR (human) came out at 460 µM.
Same read-out and setting: under `COc1cc(N)c(C(=O)NC(C)c2ccccc2)cc1OC` (stereo unspecified) stands above 1000 µM; under `COc1cccc(NC(=N)c2cc(OC)c(OC)cc2N)c1`, 340 µM.
